Test system: C. parvum strain UGA1
Assay: C. parvum growth inhibition assay (Nluc luminescence in HCT-8 cells)
Type: cell-based, Cryptosporidium parvum
Conditions: Cryptosporidium parvum, HCT-8; for inhibition at 1 µM: single point inhibition at 1 uM, read-out: % inh @ 1 uM C. parvum; for inhibition at 10 µM: single point inhibition at 10 uM, read-out: % inh @ 10 uM C. parvum

| SMILES | inhibition at 1 µM [%] | inhibition at 10 µM [%] |
| --- | --- | --- |
| Cc1cc(-c2cc3cnc(NC(=O)c4c(C)noc4C)cc3[nH]2)ccn1 [Example 221, 3,5-dimethyl-N-(2-(2-methylpyridin-4-yl)-1H-pyrrolo[3,2-c]pyridin-6-yl)isoxazole-4-carboxamide] | 0 to 33 | 33 to 66 |
| Cn1cc(-c2cc3cnc(Nc4ccc(C(F)(F)F)cc4)cc3[nH]2)cn1 [Example 222] |  | 33 to 66 |
| Cn1cc(-c2cc3cnc(NC4CCOCC4)cc3n2C)cn1 [Example 223, 1-methyl-2-(1-methyl-1H-pyrazol-4-yl)-N-(tetrahydro-2H-pyran-4-yl)-1H-pyrrolo[3,2-c]pyridin-5-amine] | 0 to 33 | 33 to 66 |
| Cc1cc(-c2cc3cnc(NC(=O)c4cnn(C)c4)cc3[nH]2)ccn1 [Example 224, 1-methyl-N-(2-(2-methylpyridin-4-yl)-1H-pyrrolo[3,2-c]pyridin-6-yl)-1H-pyrazole-4-carboxamide] | 0 to 33 | 33 to 66 |
| O=C(Nc1cc2[nH]c(-c3ccnc(OCCF)n3)cc2cn1)c1cnn(C2CCOCC2)c1 [Example 225, N-(2-(2-(2-fluoroethoxy)pyrimidin-4-yl)-1H-pyrrolo[3,2-c]pyridin-6-yl)-1-(tetrahydro-2H-pyran-4-yl)-1H-pyrazole-4-carboxamide] | 0 to 33 | 33 to 66 |
| Cc1nn(C)cc1C(=O)Nc1cc2[nH]c(-c3ccnc(OCC(F)(F)F)n3)cc2cn1 [Example 226, 1,3-dimethyl-N-(2-(2-(2,2,2-trifluoroethoxy)pyrimidin-4-yl)-1H-pyrrolo[3,2-c]pyridin-6-yl)-1H-pyrazole-4-carboxamide] | 0 to 33 | 33 to 66 |
| COc1nccc(-c2cc3cnc(NC(=O)CC4COC4)cc3[nH]2)n1 [Example 227, N-(2-(2-methoxypyrimidin-4-yl)-1H-pyrrolo[3,2-c]pyridin-6-yl)-2-(oxetan-3-yl)acetamide] | 0 to 33 | 33 to 66 |
| CO[C@H]1CC[C@@H](Nc2cc3[nH]c(-c4cccnc4)cc3cn2)CC1 [Example 228, N-((1s,4s)-4-methoxycyclohexyl)-2-(pyridin-3-yl)-1H-pyrrolo[3,2-c]pyridin-6-amine] | 33 to 66 | 33 to 66 |
| Cn1cncc1-c1cc2cnc(Nc3ccc(F)cc3)cc2[nH]1 [Example 229, N-(4-fluorophenyl)-2-(1-methyl-1H-imidazol-5-yl)-1H-pyrrolo[3,2-c]pyridin-6-amine] | 33 to 66 | 33 to 66 |
| CCOc1nccc(-c2cc3cnc(NC(=O)c4cnn(CCO)c4C)cc3[nH]2)n1 [Example 230, N-(2-(2-ethoxypyrimidin-4-yl)-1H-pyrrolo[3,2-c]pyridin-6-yl)-1-(2-hydroxyethyl)-5-methyl-1H_ pyrazole-4-carboxamide] | 0 to 33 | 33 to 66 |
| CC(C)n1cc(C(=O)Nc2cc3[nH]c(-c4ccnc(N(C)CC(F)(F)F)n4)cc3cn2)cn1 [Example 232, 1-isopropyl-N-(2-(2-(methyl(2,2,2-trifluoroethyl)amino)pyrimidin-4-yl)-1H-pyrrolo[3,2-c]pyridin-6-yl)-1H-pyrazole-4-carboxamide] | 0 to 33 | 33 to 66 |
| CCOc1nccc(-c2cc3cnc(NC(=O)c4cn(CCO)nc4C)cc3[nH]2)n1 [Example 233, N-(2-(2-ethoxypyrimidin-4-yl)-1H-pyrrolo[3,2-c]pyridin-6-yl)-1-(2-hydroxyethyl)-3-methyl-1H-pyrazole-4-carboxamide] | 0 to 33 | 33 to 66 |
| Cn1cc(-c2cc3cnc(Nc4ccc(F)cc4)cc3n2C)cn1 [Example 235, N-(4-fluorophenyl)-1-methyl-2-(1-methyl-1H-pyrazol-4-yl)-1H-pyrrolo[3,2-c]pyridin-6-amine] | 0 to 33 | 33 to 66 |
| Cc1cc(-c2cc3cnc(NC(=O)c4cnn(C5CCOC5)c4)cc3[nH]2)ccn1 (centres unmarked) [Example 236, N-(2-(2-methylpyridin-4-yl)-1H-pyrrolo[3,2-c]pyridin-6-yl)-1-(tetrahydrofuran-3-yl)-1H-pyrazole-4-carboxamide] | 33 to 66 | 33 to 66 |
| Cc1cc(-c2cc3cnc(NC(=O)c4cccc5cn[nH]c45)cc3[nH]2)ccn1 [Example 237, N-(2-(2-methylpyridin-4-yl)-1H-pyrrolo[3,2-c]pyridin-6-yl)-1H-indazole-7-carboxamide] | 0 to 33 | 33 to 66 |
| Cn1ccc(C(=O)Nc2cc3[nH]c(-c4ccncc4)cc3cn2)n1 [Example 238, 1-methyl-N-(2-(pyridin-4-yl)-1H-pyrrolo[3,2-c]pyridin-6-yl)-1H-pyrazole-3-carboxamide] | 0 to 33 | 0 to 33 |
| Cn1cc(C(=O)Nc2cc3[nH]c(-c4ccnc(C#N)c4)cc3cn2)cn1 [Example 239, N-(2-(2-cyanopyridin-4-yl)-1H-pyrrolo[3,2-c]pyridin-6-yl)-1-methyl-1H-pyrazole-4-carboxamide] | 0 to 33 | 33 to 66 |

| SMILES | inhibition at 1 µM [%] | inhibition at 10 µM [%] |
| --- | --- | --- |
| Cc1nn(C)cc1C(=O)Nc1cc2c(cn1)cc(-c1ccnc(NCC(F)(F)F)n1)n2C [Example 240, 1,3-dimethyl-N-(1-methyl-2-(2-(2,2,2-trifluoroethylamino)pyrimidin-4-yl)-1H-pyrrolo[3,2-c]pyridin-6-yl)-1H-pyrazole-4-carboxamide] | 0 to 33 | 0 to 33 |
| CC(C)n1cc(-c2cc3cnc(NC4CCOCC4)cc3n2C)cn1 [Example 241, 2-(1-isopropyl-1H-pyrazol-4-yl)-1-methyl-N-(tetrahydro-2H-pyran-4-yl)-1H-pyrrolo[3,2-c]pyridin-6-amine] | 33 to 66 | 0 to 33 |
| CCn1cc(C(=O)Nc2cc3[nH]c(-c4ccnc(OCC(F)(F)F)n4)cc3cn2)c(C)n1 [Example 242, 1-ethyl-3-methyl-N-(2-(2-(2,2,2-trifluoroethoxy)pyrimidin-4-yl)-1H-pyrrolo[3,2-c]pyridin-6-yl)-1H-pyrazole-4-carboxamide] | 0 to 33 | 0 to 33 |
| CCOc1nccc(-c2cc3cnc(NC(=O)c4cccc5cn[nH]c45)cc3[nH]2)n1 [Example 243, N-(2-(2-ethoxypyrimidin-4-yl)-1H-pyrrolo[3,2-c]pyridin-6-yl)-1H-indazole-7-carboxamide] | 0 to 33 | 0 to 33 |
| CC(=O)Nc1cc2c(cn1)cc(C#N)n2C [Example 245, N-(2-cyano-1-methyl-1H-pyrrolo[3,2-c]pyridin-6-yl)acetamide] | 0 to 33 | 0 to 33 |
| O=C(Nc1cc2[nH]c(-c3ccnc(C(F)(F)F)n3)cc2cn1)C1CC(O)C1 (centres unmarked) [Example 247, (1s,3s)-3-hydroxy-N-(2-(2-(trifluoromethyl)pyrimidin-4-yl)-1H-pyrrolo[3,2-c]pyridin-6-yl)cyclobutanecarboxamide] | 33 to 66 | 0 to 33 |
| O=C(Nc1cc2[nH]c(-c3ccc(F)nc3)cc2cn1)C1CC1 [Example 248, N-(2-(6-fluoropyridin-3-yl)-1H-pyrrolo[3,2-c]pyridin-6-yl)cyclopropanecarboxamide] | 0 to 33 | 0 to 33 |
| CCOc1nccc(-c2cc3cnc(NC(=O)c4ccc(OCCOC)c(OC)c4)cc3[nH]2)n1 [Example 249, N-(2-(2-ethoxypyrimidin-4-yl)-1H-pyrrolo[3,2-c]pyridin-6-yl)-3-methoxy-4-(2-methoxyethoxy)benzamide] | 0 to 33 | 0 to 33 |
| COc1nccc(-c2cc3cnc(NC(=O)c4cn(C)nc4C)cc3[nH]2)n1 [Example 250, N-(2-(2-methoxypyrimidin-4-yl)-1H-pyrrolo[3,2-c]pyridin-6-yl)-1,3-dimethyl-1H-pyrazole-4-carboxamide] | 0 to 33 | 0 to 33 |
| O[C@H]1CC[C@@H](Nc2cc3[nH]c(-c4cccnc4)cc3cn2)CC1 [Example 251, (1s,4s)-4-(2-(pyridin-3-yl)-1H-pyrrolo[3,2-c]pyridin-6-ylamino)cyclohexanol] | 0 to 33 | 0 to 33 |
| COCCOc1ccc(C(=O)Nc2cc3[nH]c(-c4ccnc(OC)n4)cc3cn2)cc1OC [Example 252, 3-methoxy-4-(2-methoxyethoxy)-N-(2-(2-methoxypyrimidin-4-yl)-1H-pyrrolo[3,2-c]pyridin-6-yl)benzamide] | 0 to 33 | 0 to 33 |
| CCOc1nccc(-c2cc3cnc(NC(=O)[C@H]4C[C@H](O)C4)cc3[nH]2)n1 [Example 253, (1r,3r)-N-(2-(2-ethoxypyrimidin-4-yl)-1H-pyrrolo[3,2-c]pyridin-6-yl)-3-hydroxycyclobutanecarboxamide] | 0 to 33 | 0 to 33 |
| Cn1cc(C(=O)Nc2cc3[nH]c(-c4cc(C(F)(F)F)ncn4)cc3cn2)cn1 [Example 254, 1-methyl-N-(2-(6-(trifluoromethyl)pyrimidin-4-yl)-1H-pyrrolo[3,2-c]pyridin-6-yl)-1H-pyrazole-4-carboxamide] | 0 to 33 | 0 to 33 |
| CN1CCC(c2cc3cnc(NC(=O)C4CC4)cc3[nH]2)CC1 [Example 255, N-(2-(1-methylpiperidin-4-yl)-1H-pyrrolo[3,2-c]pyridin-6-yl)cyclopropanecarboxamide] | 0 to 33 | 0 to 33 |
| COc1nccc(-c2cc3cnc(NC(=O)c4cnn(C)c4)cc3n2C)n1 [Example 256, N-(2-(2-methoxypyrimidin-4-yl)-1-methyl-1H-pyrrolo[3,2-c]pyridin-6-yl)-1-methyl-1H-pyrazole-4-carboxamide] | 0 to 33 | 0 to 33 |
| CN(C(=O)c1cnn(C)c1)c1cc2[nH]c(-c3ccnc(NCC(F)(F)F)n3)cc2cn1 [Example 257, N,1-dimethyl-N-(2-(2-(2,2,2-trifluoroethylamino)pyrimidin-4-yl)-1H-pyrrolo[3,2-c]pyridin-6-yl)-1H-pyrazole-4-carboxamide] | 0 to 33 | 0 to 33 |
